Blank lines part the entries; values can stand above or below the molecule they belong to.
Assays:
[1] = test system: Pseudomonas aeruginosa; experiment: Antibiofilm activity against Pseudomonas aeruginosa PAO1 assessed as inhibition of biofilm formation at 1 to 100 uM incubated for 24 hrs by crystal violet staining based assay relative to control; type: functional; design: scale not given: the % may be the effect or the level left; settings: dose 1-100 µM
[2] = test system: Pseudomonas aeruginosa; experiment: Inhibition of rhamnolipid production in Pseudomonas aeruginosa PAO1 incubated for 24 hrs by spectrophotometric analysis; type: functional, organism-based; settings: PAO1, 24 h
[3] = Inhibition of quorum sensing system in Pseudomonas aeruginosa PAO1 expressing lasB-gfp at 10 uM relative to control
[4] = test system: Pseudomonas aeruginosa; experiment: Antibiofilm activity against Pseudomonas aeruginosa PAO1 assessed as inhibition of biofilm formation at 100 uM relative to control; type: functional; design: scale not given: the % may be the effect or the level left
[5] = test system: Pseudomonas aeruginosa; experiment: Anti-virulence effect in Pseudomonas aeruginosa PAO1 assessed as inhibition of pyocyanin production at 250 ug/ml relative to control; type: functional; design: scale not given: the % may be the effect or the level left; settings: dose 250 µg/ml
[6] = test system: Pseudomonas aeruginosa; experiment: Antibiofilm activity against Pseudomonas aeruginosa PAO1 assessed as inhibition of biofilm formation at 250 ug/ml incubated for 24 hrs by crystal violet staining based assay relative to control; type: functional; design: scale not given: the % may be the effect or the level left; settings: dose 250 µg/ml
[7] = test system: Pseudomonas aeruginosa; experiment: Antibiofilm activity against Pseudomonas aeruginosa PAO1 assessed as reduction in biofilm formation at 16 ug/ml incubated for 2 to 4 hrs by crystal violet staining based analysis relative to control; type: functional; design: scale not given: the % may be the effect or the level left; settings: dose 16 µg/ml; time 2-4 hrs
[8] = test system: Pseudomonas aeruginosa; experiment: Anti-virulence effect in Pseudomonas aeruginosa PAO1 assessed as inhibition of rhamnolipid production at 250 ug/ml relative to control; type: functional; design: scale not given: the % may be the effect or the level left; settings: dose 250 µg/ml

IC50 [2]: 50 µM
SMILES: O=C(/C=C/c1ccc(O)c(O)c1)c1ccc(O)cc1O [BUTEIN]
Activity [1]: 72.45%

inhibition [3]: 30%
SMILES: O=Cc1ccc2c(c1)OC(c1ccc(O)c(O)c1)O2 (stereo not drawn)
Activity [4]: 44.63%

SMILES: O=C1CCc2ccccc2O1 [DIHYDROCOUMARIN]
Activity [5]: 87.25%
Activity [6]: 46.1%
Activity [7]: 36%
Activity [8]: 48.94%
